Where a name gives a salt, the structure may show the parent alone.
How the values were obtained:
Assay type in all cases: biochemical
P38b MAPK = molecular target: T1, P38b MAPK (Homo sapiens, UniProt Q15759); experiment: P38b MAPK protein kinase assay; settings: P38b MAPK, read-out: residual kinase activity; for remaining activity at 1 µM: 1 μM compound; for remaining activity at 10 µM: 10 μM compound
T1 construct: All protein kinases were of human origin and encoded full length proteins, unless indicated otherwise; made in house
T1 sequence (Q15759 whole entry): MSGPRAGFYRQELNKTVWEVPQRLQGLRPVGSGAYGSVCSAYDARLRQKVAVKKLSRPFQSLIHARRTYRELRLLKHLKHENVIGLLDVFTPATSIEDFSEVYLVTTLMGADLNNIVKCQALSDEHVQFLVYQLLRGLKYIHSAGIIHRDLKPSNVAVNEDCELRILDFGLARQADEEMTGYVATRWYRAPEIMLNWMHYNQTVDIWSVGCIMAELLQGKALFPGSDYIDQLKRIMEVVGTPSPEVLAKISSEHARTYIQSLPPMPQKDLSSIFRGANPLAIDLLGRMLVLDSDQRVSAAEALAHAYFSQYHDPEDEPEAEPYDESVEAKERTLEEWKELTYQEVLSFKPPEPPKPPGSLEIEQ
Excerpt: (§1) All protein kinases were of human origin and encoded full length proteins, unless indicated otherwise. They were either expressed as glutathione S-transferase (GST) fusion proteins in Escherichia Coli or as hexahistidine (His6)-tagged proteins in insect Sf21 cells. GST fusion proteins were purified by affinity chromatography on glutathione-Sepharose, and His6-tagged proteins on nickel/nitriloacetate-agarose. The procedures for expressing some of the protein kinases used herein have been detailed previously.^8,9 The following sections outline the DNA vectors synthesised and the procedures used to express and purifying protein kinases that have not been reported previously.
(§2) All assays (25.5 μl) were carried out at room temperature (21° C.) and were linear with respect to time and enzyme concentration under the conditions used. Assays were performed for 30 min using Multidrop Micro reagent dispensers (Thermo Electron Corporation, Waltham, Mass. 02454, USA) in a 96-well format. The concentration of magnesium acetate in the assays was 10 mM and the [γ-33P] ATP (800 cpm/pmol) was used at 5, 20 or 50 μM as indicated, in order to be at or below the Km for ATP for each enzyme. Protein kinases assayed at 5 μM ATP were: —ERK1, ERK8, PKBα, MARK3, Aurora C. Protein kinases assayed at 20 μM ATP were: —JNK1, PDK1, CHK1, CHK2, CDK2 and Aurora B. Protein kinases assayed at 50 μM ATP were: —MNK2, IKKepsilon and TBK1.
(§3) The assays were initiated with MgATP, stopped by addition of 5 μl of 0.5 M orthophosphoric acid and spotted on to P81 filterplates using a unifilter harvester (PerkinElmer, Boston, Mass. 02118, USA). The IC50 values of inhibitors were determined after carrying out assays at 10 different concentrations of each compound.
(§4) Unless stated otherwise, enzymes were diluted in 50 mM Tris/HCl pH 7.5, 0.1 mM EGTA, 1 mg/ml BSA, 0.1% (v/v) 2-mercaptoethanol and assayed in 50 mM Tris/HCl pH 7.5, 0.1 mM EGTA, 0.1% (v/v) 2-mercaptoethanol.

HIPK2 = molecular target: T2, HIPK2 (Homo sapiens, UniProt Q9H2X6); experiment: HIPK2 protein kinase assay; settings: HIPK2, read-out: residual kinase activity; for remaining activity at 1 µM: 1 μM compound; for remaining activity at 10 µM: 10 μM compound
T2 construct: All protein kinases were of human origin and encoded full length proteins, unless indicated otherwise; made in house
T2 sequence (Q9H2X6 165-564 limits assumed): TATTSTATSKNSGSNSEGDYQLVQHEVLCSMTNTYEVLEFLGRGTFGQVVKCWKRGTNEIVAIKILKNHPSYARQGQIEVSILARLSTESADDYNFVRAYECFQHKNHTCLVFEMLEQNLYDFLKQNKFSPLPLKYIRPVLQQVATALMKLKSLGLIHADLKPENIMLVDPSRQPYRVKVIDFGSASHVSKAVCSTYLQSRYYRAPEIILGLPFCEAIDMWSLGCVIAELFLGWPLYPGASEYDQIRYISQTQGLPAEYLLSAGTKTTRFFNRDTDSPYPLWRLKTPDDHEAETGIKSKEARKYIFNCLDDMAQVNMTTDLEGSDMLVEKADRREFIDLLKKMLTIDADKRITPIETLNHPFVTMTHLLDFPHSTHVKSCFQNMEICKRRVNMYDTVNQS
Excerpt: as §1, §2, §3, §4

CAMKKb = molecular target: T3, CAMKKb (Homo sapiens, UniProt Q96RR4); experiment: CAMKKb protein kinase assay; settings: CAMKKb, read-out: residual kinase activity; for remaining activity at 1 µM: 1 μM compound; for remaining activity at 10 µM: 10 μM compound
T3 construct: All protein kinases were of human origin and encoded full length proteins, unless indicated otherwise; made in house
T3 sequence (Q96RR4 whole entry): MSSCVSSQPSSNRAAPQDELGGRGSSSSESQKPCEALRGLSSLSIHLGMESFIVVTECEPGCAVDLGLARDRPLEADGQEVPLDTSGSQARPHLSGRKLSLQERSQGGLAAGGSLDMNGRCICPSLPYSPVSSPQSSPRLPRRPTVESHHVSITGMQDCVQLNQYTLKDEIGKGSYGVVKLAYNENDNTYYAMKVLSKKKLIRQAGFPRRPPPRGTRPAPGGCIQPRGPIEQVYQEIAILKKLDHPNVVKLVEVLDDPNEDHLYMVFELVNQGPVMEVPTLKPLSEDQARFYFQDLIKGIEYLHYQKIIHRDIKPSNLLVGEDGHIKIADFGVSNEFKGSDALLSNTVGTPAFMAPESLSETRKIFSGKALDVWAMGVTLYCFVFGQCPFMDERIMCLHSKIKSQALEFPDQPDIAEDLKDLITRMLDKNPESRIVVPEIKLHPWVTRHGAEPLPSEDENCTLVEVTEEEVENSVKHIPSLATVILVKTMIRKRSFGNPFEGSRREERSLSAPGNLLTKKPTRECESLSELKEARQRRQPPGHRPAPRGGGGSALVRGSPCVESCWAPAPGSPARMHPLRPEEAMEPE
Excerpt: as §1, §2, §3, §4

FGF-R1 = molecular target: T4, FGF-R1 (Homo sapiens, UniProt P11362); experiment: FGF-R1 protein kinase assay; settings: FGF-R1, read-out: residual kinase activity; for remaining activity at 1 µM: 1 μM compound; for remaining activity at 10 µM: 10 μM compound
T4 construct: All protein kinases were of human origin and encoded full length proteins, unless indicated otherwise; made in house
T4 sequence (P11362 400-820 limits assumed): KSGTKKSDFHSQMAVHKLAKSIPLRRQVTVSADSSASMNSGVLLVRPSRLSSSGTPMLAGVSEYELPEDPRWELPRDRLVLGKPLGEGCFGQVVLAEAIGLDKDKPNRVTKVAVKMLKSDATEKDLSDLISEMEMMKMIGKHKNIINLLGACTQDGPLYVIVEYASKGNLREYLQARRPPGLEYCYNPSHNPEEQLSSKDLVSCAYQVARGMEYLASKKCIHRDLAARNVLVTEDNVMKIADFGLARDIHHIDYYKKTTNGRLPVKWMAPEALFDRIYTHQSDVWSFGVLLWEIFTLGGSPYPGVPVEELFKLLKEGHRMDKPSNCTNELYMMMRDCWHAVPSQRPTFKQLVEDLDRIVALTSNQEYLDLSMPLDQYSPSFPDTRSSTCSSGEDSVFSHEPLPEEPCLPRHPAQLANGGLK
Excerpt: as §1, §2, §3, §4

BTK = molecular target: T5, BTK (Homo sapiens, UniProt Q06187); experiment: BTK protein kinase assay; settings: BTK, read-out: residual kinase activity; for remaining activity at 1 µM: 1 μM compound; for remaining activity at 10 µM: 10 μM compound
T5 construct: All protein kinases were of human origin and encoded full length proteins, unless indicated otherwise; made in house
Excerpt: as §1, §2, §3, §4

MKK1 = molecular target: T6, MKK1 (Homo sapiens, UniProt Q02750); experiment: MKK1 protein kinase assay; settings: MKK1, read-out: residual kinase activity; for remaining activity at 1 µM: 1 μM compound; for remaining activity at 10 µM: 10 μM compound
T6 construct: All protein kinases were of human origin and encoded full length proteins, unless indicated otherwise; made in house
T6 sequence (Q02750 whole entry): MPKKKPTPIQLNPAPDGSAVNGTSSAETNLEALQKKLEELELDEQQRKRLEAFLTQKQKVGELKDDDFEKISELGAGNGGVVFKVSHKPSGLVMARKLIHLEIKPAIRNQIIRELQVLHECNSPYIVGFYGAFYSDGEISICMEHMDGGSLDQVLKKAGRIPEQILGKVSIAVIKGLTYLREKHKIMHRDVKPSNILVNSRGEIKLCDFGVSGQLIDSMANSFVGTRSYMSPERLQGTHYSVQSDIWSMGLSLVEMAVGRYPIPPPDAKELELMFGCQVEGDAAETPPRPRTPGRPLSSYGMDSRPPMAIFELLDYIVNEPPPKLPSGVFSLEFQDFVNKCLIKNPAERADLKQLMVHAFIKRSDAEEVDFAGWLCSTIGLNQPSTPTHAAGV
Excerpt: as §1, §2, §3, §4

Lck = molecular target: T7, Lck (Homo sapiens, UniProt P06239); experiment: Lck protein kinase assay; settings: Lck, read-out: residual kinase activity; for remaining activity at 1 µM: 1 μM compound; for remaining activity at 10 µM: 10 μM compound
T7 construct: All protein kinases were of human origin and encoded full length proteins, unless indicated otherwise; made in house
T7 sequence (P06239 whole entry): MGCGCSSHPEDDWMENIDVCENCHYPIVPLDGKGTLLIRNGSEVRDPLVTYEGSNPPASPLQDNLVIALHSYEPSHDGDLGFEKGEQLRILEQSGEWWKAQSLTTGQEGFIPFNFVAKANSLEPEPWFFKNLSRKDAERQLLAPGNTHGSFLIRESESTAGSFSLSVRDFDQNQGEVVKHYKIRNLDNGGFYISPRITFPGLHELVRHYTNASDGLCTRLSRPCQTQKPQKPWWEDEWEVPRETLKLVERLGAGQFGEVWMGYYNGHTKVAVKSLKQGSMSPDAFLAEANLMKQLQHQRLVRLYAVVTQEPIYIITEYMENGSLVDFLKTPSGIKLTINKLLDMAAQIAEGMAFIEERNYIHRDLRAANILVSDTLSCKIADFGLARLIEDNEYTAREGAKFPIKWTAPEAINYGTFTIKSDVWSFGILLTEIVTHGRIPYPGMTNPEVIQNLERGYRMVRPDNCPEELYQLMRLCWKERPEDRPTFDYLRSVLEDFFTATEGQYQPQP
Excerpt: as §1, §2, §3, §4

SYK = molecular target: T8, SYK (Homo sapiens, UniProt P43405); experiment: SYK protein kinase assay; settings: SYK, read-out: residual kinase activity; for remaining activity at 1 µM: 1 μM compound; for remaining activity at 10 µM: 10 μM compound
T8 construct: All protein kinases were of human origin and encoded full length proteins, unless indicated otherwise; made in house
Excerpt: as §1, §2, §3, §4

CSK = molecular target: T9, CSK (Homo sapiens, UniProt P41240); experiment: CSK protein kinase assay; settings: CSK, read-out: residual kinase activity; for remaining activity at 1 µM: 1 μM compound; for remaining activity at 10 µM: 10 μM compound
T9 construct: All protein kinases were of human origin and encoded full length proteins, unless indicated otherwise; made in house
T9 sequence (P41240 whole entry): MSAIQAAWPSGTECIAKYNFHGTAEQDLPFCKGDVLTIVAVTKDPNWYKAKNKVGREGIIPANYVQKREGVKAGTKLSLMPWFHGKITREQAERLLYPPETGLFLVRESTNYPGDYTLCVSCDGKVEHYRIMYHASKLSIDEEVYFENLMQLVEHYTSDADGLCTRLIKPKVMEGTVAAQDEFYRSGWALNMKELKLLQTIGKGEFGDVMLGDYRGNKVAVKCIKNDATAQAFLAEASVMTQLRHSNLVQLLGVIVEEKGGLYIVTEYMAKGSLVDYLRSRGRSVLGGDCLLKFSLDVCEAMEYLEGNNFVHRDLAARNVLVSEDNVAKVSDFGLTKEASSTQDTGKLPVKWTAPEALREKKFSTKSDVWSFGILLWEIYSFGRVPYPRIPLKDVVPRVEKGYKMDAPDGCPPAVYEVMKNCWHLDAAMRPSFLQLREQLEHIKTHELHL
Excerpt: as §1, §2, §3, §4

PIM3 = molecular target: T10, PIM3 (Homo sapiens, UniProt Q86V86); experiment: PIM3 protein kinase assay; settings: PIM3, read-out: residual kinase activity; for remaining activity at 1 µM: 1 μM compound; for remaining activity at 10 µM: 10 μM compound
T10 construct: All protein kinases were of human origin and encoded full length proteins, unless indicated otherwise; made in house
Excerpt: as §1, §2, §3, §4

VEG-FR = molecular target: T11, VEG-FR (Homo sapiens, UniProt P17948); experiment: VEG-FR protein kinase assay; settings: VEG-FR, read-out: residual kinase activity; for remaining activity at 1 µM: 1 μM compound; for remaining activity at 10 µM: 10 μM compound
T11 construct: All protein kinases were of human origin and encoded full length proteins, unless indicated otherwise; made in house
T11 sequence (P17948 784-1338 limits assumed): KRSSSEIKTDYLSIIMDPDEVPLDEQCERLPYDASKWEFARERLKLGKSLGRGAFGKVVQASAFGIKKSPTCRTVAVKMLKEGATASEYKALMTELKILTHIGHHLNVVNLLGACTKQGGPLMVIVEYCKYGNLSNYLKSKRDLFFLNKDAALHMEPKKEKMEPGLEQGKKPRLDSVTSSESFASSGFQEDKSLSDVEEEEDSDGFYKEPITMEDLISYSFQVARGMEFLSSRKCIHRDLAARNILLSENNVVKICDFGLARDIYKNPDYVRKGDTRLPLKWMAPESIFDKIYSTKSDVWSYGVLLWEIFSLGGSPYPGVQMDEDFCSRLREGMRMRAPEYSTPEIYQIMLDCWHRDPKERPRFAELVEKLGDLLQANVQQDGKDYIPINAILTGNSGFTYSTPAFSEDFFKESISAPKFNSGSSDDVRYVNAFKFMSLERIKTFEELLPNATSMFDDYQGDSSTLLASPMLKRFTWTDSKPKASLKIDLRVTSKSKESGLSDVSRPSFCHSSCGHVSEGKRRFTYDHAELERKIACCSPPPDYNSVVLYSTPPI
Excerpt: as §1, §2, §3, §4

MAPKAP-K2 = molecular target: T12, MAPKAP-K2 (Homo sapiens, UniProt P49137); experiment: MAPKAP-K2 protein kinase assay; settings: MAPKAP-K2, read-out: residual kinase activity; for remaining activity at 1 µM: 1 μM compound; for remaining activity at 10 µM: 10 μM compound
T12 construct: All protein kinases were of human origin and encoded full length proteins, unless indicated otherwise; made in house
T12 sequence (P49137 46-400 limits assumed): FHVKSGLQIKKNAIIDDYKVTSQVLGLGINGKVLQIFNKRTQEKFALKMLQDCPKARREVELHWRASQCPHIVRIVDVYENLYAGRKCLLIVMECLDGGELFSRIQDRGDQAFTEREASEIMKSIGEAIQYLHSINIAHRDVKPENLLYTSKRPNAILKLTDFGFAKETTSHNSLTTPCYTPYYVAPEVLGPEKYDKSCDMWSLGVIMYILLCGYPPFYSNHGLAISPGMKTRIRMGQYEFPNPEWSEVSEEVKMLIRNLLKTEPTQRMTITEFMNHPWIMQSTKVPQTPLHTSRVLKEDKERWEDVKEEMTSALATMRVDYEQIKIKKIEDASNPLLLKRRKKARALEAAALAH
Excerpt: as §1, §2, §3, §4

PRK2 = molecular target: T13, PRK2 (Homo sapiens, UniProt Q16513); experiment: PRK2 protein kinase assay; settings: PRK2, read-out: residual kinase activity; for remaining activity at 1 µM: 1 μM compound; for remaining activity at 10 µM: 10 μM compound
T13 construct: All protein kinases were of human origin and encoded full length proteins, unless indicated otherwise; made in house
T13 sequence (Q16513 501-984 limits assumed): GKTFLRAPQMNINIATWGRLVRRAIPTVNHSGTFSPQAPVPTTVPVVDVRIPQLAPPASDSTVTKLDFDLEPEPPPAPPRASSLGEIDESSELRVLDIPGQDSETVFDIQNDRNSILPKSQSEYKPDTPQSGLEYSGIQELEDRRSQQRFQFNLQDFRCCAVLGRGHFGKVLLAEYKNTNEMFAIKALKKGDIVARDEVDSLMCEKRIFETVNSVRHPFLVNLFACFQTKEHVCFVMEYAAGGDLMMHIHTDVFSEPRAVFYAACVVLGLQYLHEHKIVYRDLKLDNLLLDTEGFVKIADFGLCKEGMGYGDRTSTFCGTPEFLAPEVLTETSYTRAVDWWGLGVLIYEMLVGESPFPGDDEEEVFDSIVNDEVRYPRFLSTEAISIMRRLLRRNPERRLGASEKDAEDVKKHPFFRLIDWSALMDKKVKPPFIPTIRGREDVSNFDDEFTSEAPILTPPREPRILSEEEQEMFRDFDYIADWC
Excerpt: as §1, §2, §3, §4

PLK1 = molecular target: T14, PLK1 (Homo sapiens, UniProt P53350); experiment: PLK1 protein kinase assay; settings: PLK1, read-out: residual kinase activity; for remaining activity at 1 µM: 1 μM compound; for remaining activity at 10 µM: 10 μM compound
T14 construct: All protein kinases were of human origin and encoded full length proteins, unless indicated otherwise; made in house
T14 sequence (P53350 whole entry): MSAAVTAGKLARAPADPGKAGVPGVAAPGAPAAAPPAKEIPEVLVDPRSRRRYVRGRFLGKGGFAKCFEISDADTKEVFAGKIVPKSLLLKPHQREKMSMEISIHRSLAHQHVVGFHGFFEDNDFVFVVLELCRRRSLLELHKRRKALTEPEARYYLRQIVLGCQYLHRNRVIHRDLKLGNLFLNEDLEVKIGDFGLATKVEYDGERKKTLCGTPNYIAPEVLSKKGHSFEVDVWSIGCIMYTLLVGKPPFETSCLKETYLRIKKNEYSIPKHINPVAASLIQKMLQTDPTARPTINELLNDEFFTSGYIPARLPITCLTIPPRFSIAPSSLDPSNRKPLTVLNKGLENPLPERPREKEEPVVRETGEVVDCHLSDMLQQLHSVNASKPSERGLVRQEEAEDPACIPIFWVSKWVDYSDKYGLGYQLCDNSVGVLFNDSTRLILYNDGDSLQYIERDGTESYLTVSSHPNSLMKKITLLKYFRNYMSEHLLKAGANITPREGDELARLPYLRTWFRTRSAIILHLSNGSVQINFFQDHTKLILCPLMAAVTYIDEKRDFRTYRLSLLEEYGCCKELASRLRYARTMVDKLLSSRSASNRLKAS
Excerpt: as §1, §2, §3, §4

| Structure (SMILES) | remaining activity at 1 µM (P38b MAPK) [%] | remaining activity at 10 µM (P38b MAPK) [%] | remaining activity at 1 µM (HIPK2) [%] | remaining activity at 10 µM (HIPK2) [%] | remaining activity at 1 µM (CAMKKb) [%] | remaining activity at 10 µM (CAMKKb) [%] | remaining activity at 1 µM (FGF-R1) [%] | remaining activity at 10 µM (FGF-R1) [%] | remaining activity at 1 µM (BTK) [%] | remaining activity at 10 µM (BTK) [%] | remaining activity at 1 µM (MKK1) [%] | remaining activity at 10 µM (MKK1) [%] | remaining activity at 1 µM (Lck) [%] | remaining activity at 10 µM (Lck) [%] | remaining activity at 1 µM (SYK) [%] | remaining activity at 10 µM (SYK) [%] | remaining activity at 1 µM (CSK) [%] | remaining activity at 10 µM (CSK) [%] | remaining activity at 1 µM (PIM3) [%] | remaining activity at 10 µM (PIM3) [%] | other results |
| --- | --- | --- | --- | --- | --- | --- | --- | --- | --- | --- | --- | --- | --- | --- | --- | --- | --- | --- | --- | --- | --- |
| O=C(NCCCNc1nc(Nc2cccc(N3CCCC3=O)c2)ncc1C1CC1)c1cccs1 [Example 47, Thiophene-2-carboxylic acid (3-{5-cyclopropyl-2-[3-(2-oxo-pyrrolidin-1-yl)-phenylamino]-pyrimidin-4-ylamino}-propyl)-amide. Hydrochloride salt] | 99 | 90 | 88 | 67 | 61 | 36 | 78 | 31 | 93 | 61 | 33 | 17 | 105 | 69 | 82 | 49 | 77 | 71 | 99 | 78 | remaining activity at 1 µM (VEG-FR): 12%; remaining activity at 10 µM (VEG-FR): 34%; remaining activity at 1 µM (MAPKAP-K2): 75%; remaining activity at 10 µM (MAPKAP-K2): 95%; remaining activity at 1 µM (PRK2): 76%; remaining activity at 10 µM (PRK2): 68%; remaining activity at 1 µM (PLK1): 88%; remaining activity at 10 µM (PLK1): 75% |
| O=C(NCCCNc1nc(Nc2cccnc2)ncc1C1CC1)c1cccs1 [Example 50, Thiophene-2-carboxylic acid {3-[5-cyclopropyl-2-(pyridin-3-ylamino)-pyrimidin-4-ylamino]-propyl}-amide] | 99 | 89 | 83 | 54 | 72 | 40 | 77 | 31 | 93 | 66 | 44 | 24 | 91 | 50 | 83 | 60 | 79 | 60 | 102 | 50 | remaining activity at 1 µM (VEG-FR): 78%; remaining activity at 10 µM (VEG-FR): 20%; remaining activity at 1 µM (MAPKAP-K2): 88%; remaining activity at 10 µM (MAPKAP-K2): 85%; remaining activity at 1 µM (PRK2): 68%; remaining activity at 10 µM (PRK2): 58%; remaining activity at 1 µM (PLK1): 101%; remaining activity at 10 µM (PLK1): 66% |

From patent US20100056524A1, “Compound” (priority 2008, published 2010)
